≈ marks a conversion by molar mass, not a printed value. Marks after values point to notes of the source that are not given here.
What was measured:
[1] = system: S. pneumoniae ATCC49619; experiment: Frequency of development of resistant bacteria; format: cell-based, Streptococcus pneumoniae; conditions: for FREQUENCY OF DEVELOPMENT OF RESISTANT BACTERIA (AVERAGE OF TWO MEASURED VALUES): about 70 hours
Procedure: (§1) S. aureus ATCC29213 is Staphylococcus aureus, S. pneumoniae ATCC49619 is Streptococcus pneumoniae, and E. coli ATCC25922 is Escherichia coli. […]
(§2) The frequency of development of resistant bacteria was calculated by dividing the number of colonies developed on an agar medium having each drug concentration by the number of initially inoculated bacteria.

[2] = system: E. coli ATCC25922; experiment: microbe, parasite or virus in culture; format: cell-based; conditions: Escherichia coli
[3] = system: S. aureus ATCC29213; experiment: Frequency of development of resistant bacteria; format: cell-based, Staphylococcus aureus; conditions: for FREQUENCY OF DEVELOPMENT OF RESISTANT BACTERIA (AVERAGE OF TWO MEASURED VALUES): about 70 hours
Procedure: as §1, §2

[4] = system: E. coli ATCC25922; experiment: Frequency of development of resistant bacteria; format: cell-based, Escherichia coli; conditions: for FREQUENCY OF DEVELOPMENT OF RESISTANT BACTERIA (AVERAGE OF TWO MEASURED VALUES): about 70 hours
Procedure: as §1, §2

[5] = Concentration in tissue (rat, oral administration), radioactivity; format: in vivo; conditions: SD rat, single oral 10.83 mg/kg; for RADIOACTIVITY CONCENTRATION IN TISSUE, LUNG / RADIOACTIVITY CONCENTRATION IN TISSUE, PLASMA: fasting
Procedure: The compound C (10.83 mg/kg) (solvent: water) was single orally administrated to a SD rat under fasting. 1, 6, and 24 hours after the administration, the lung tissue and the plasma were collected. The lung tissue was dried and treated by a sample oxidizer system (Sample Oxidizer: Model 307, PerkinElmer Inc., glass vial: 20 mL, Wheaton Industries, carbon dioxide absorbent: Carbo-Sorb 8 mL, PerkinElmer Inc., scintillation cocktail: Permafluor 12 mL, PerkinElmer Inc.), and the radioactivity concentration was measured. The plasma was fractionated in a midi-vial (8 mL, PerkinElmer Inc.), 6 mL of scintillation cocktail (Ultima Gold) was added, and the radioactivity concentration was measured. The radioactivity concentration was measured using a liquid scintillation counter (Tri-Carb 2500TR or 2700TR, PerkinElmer Inc.) (average value, n=3).

## O=C(O)c1cn(C2CC2)c2cc(N3CCNCC3)c(F)cc2c1=O [CPFX, ciprofloxacin]
[1]; S. pneumoniae ATCC49619, 4 to 16 × MIC
  development of resistant bacteria (in words): developed
[1]; S. pneumoniae ATCC49619, 4 × MIC
  FREQUENCY OF DEVELOPMENT OF RESISTANT BACTERIA (AVERAGE OF TWO MEASURED VALUES): 1.1 × 10^−8*
[1]; S. pneumoniae ATCC49619, 8 × MIC
  FREQUENCY OF DEVELOPMENT OF RESISTANT BACTERIA (AVERAGE OF TWO MEASURED VALUES): <1.1 × 10^−8
[1]; S. pneumoniae ATCC49619, 16 × MIC
  FREQUENCY OF DEVELOPMENT OF RESISTANT BACTERIA (AVERAGE OF TWO MEASURED VALUES): <1.1 × 10^−8
[2]
  MIC: 8 ng/mL (≈ 0.0241 µM)
[3]; S. aureus ATCC29213, 4 to 16 × MIC
  development of resistant bacteria (in words): developed
[3]; S. aureus ATCC29213, 4 × MIC
  FREQUENCY OF DEVELOPMENT OF RESISTANT BACTERIA (AVERAGE OF TWO MEASURED VALUES): 6.2 × 10^−9*
[3]; S. aureus ATCC29213, 8 × MIC
  FREQUENCY OF DEVELOPMENT OF RESISTANT BACTERIA (AVERAGE OF TWO MEASURED VALUES): 3.1 × 10^−9*
[3]; S. aureus ATCC29213, 16 × MIC
  FREQUENCY OF DEVELOPMENT OF RESISTANT BACTERIA (AVERAGE OF TWO MEASURED VALUES): <2.1 × 10^−9
[4]; E. coli ATCC25922, 4 to 16 × MIC
  development of resistant bacteria (in words): developed
[4]; E. coli ATCC25922, 4 × MIC
  FREQUENCY OF DEVELOPMENT OF RESISTANT BACTERIA (AVERAGE OF TWO MEASURED VALUES): 1.2 × 10^−8*
[4]; E. coli ATCC25922, 8 × MIC
  FREQUENCY OF DEVELOPMENT OF RESISTANT BACTERIA (AVERAGE OF TWO MEASURED VALUES): <1.9 × 10^−9
[4]; E. coli ATCC25922, 16 × MIC
  FREQUENCY OF DEVELOPMENT OF RESISTANT BACTERIA (AVERAGE OF TWO MEASURED VALUES): <1.9 × 10^−9

## COc1c(N2C[C@H](CNC3CC3)[C@H](F)C2)c(F)cc2c(=O)c(C(=O)O)cn(CCF)c12.Cl [Compound C, 7-[(3S,4S)-3-{(cyclopropylamino)methyl}-4-fluoropyrrolidine-1-yl]-6-fluoro-1-(2-fluoroethyl)-8-methoxy-4-oxo-1,4-dihydro[2-^14C1]quinoline-3-carboxylic acid hydrochloride]
[5]; 1 hr
  RADIOACTIVITY CONCENTRATION IN TISSUE, LUNG: 10.3 μg eq./mL or g
  RADIOACTIVITY CONCENTRATION IN TISSUE, PLASMA: 2.79 μg eq./mL or g
  TISSUE DISTRIBUTION RATIO, LUNG: 3.7
[5]; 6 hr
  RADIOACTIVITY CONCENTRATION IN TISSUE, LUNG: 2.44 μg eq./mL or g
  RADIOACTIVITY CONCENTRATION IN TISSUE, PLASMA: 0.815 μg eq./mL or g
  TISSUE DISTRIBUTION RATIO, LUNG: 3.0
[5]; 24 hr
  RADIOACTIVITY CONCENTRATION IN TISSUE, LUNG: 0.0541 μg eq./mL or g
  RADIOACTIVITY CONCENTRATION IN TISSUE, PLASMA: 0.0294 μg eq./mL or g
  TISSUE DISTRIBUTION RATIO, LUNG: 1.9
